Read-outs that look alike come from different tables or passages of the source.

Test [1] has as its system MOLM-13 cells. Put plainly: Co-treatment combination screen, synergy score, ATPlite. The format is cell-based, human. To be noted: simultaneous combination treatment, 72 hours. As for the experimental part:
(§1) The combination screen was performed using the co-treatment dosing schedule for SRA141 and the partner compound. Both enhancee (SRA141) and enhancer (partner compound) were added at time zero (0 h). Cells were exposed to SRA141 and the enhancer for the entire 72-hour treatment time. All data points were collected via automated processes and were subject to quality control and analyzed using proprietary software.
(§2) The Growth Inhibition (GI) was utilized as a measure of cell growth. GI percentages are calculated by applying the following test and equation: […]
(§3) This formula is derived from the Growth Inhibition calculation used in the National Cancer Institute's NCI-60 high throughput screen. […] These GI calculations were used in all single agent and combination data analysis for the combination screen.
(§4) To measure combination effects in excess of Loewe additivity, a scalar measure was used to characterize the strength of synergistic interaction termed the Synergy Score. The Synergy Score is calculated as: Synergy Score=log fX log fYΣ max(0,Idata)(Idata−ILoewe)
(§5) The fractional inhibition for each component agent and combination point in the matrix is calculated relative to the median of all vehicle-treated control wells. The Synergy Score equation integrates the experimentally-observed activity volume at each point in the matrix in excess of a model surface numerically derived from the activity of the component agents using the Loewe model for additivity. Additional terms in the Synergy Score equation (above) are used to normalize for various dilution factors used for individual agents and to allow for comparison of synergy scores across an entire experiment. The inclusion of positive inhibition gating or an Idata multiplier removes noise near the zero effect level, and biases results for synergistic interactions at that occur at high activity levels. Combinations with higher maximum Growth Inhibition (GI) effects or those which are synergistic at low concentrations will have higher Synergy Scores. Those combinations with Synergy Scores that statistically supersede baseline self-cross values can be considered synergistic. The magnitude of GI effects may be linked to the growth rate of cells which varies for each cell line examined.
(§6) Loewe Volume Score is used to assess the overall magnitude of the combination interaction in excess of the Loewe additivity model. Loewe Volume is particularly useful when distinguishing synergistic increases in a phenotypic activity (positive Loewe Volume) versus synergistic antagonisms (negative Loewe Volume).

Test [2] concerns MOLM-13. Put plainly: Combination of SRA141 with targeted agents, CTG and CTBlue, 72 hours, Bliss CI. Format: cell-based. The note with it: for combination effect with SRA141: MOLM-13, 72 hours. The procedure: The anti-apoptotic gene BCL-2 was inhibited in Molm-13 cells by treatment with 0.1 μM ABT-199 as previously described (see Examples 6 and 24). Cells were treated with 0.1 μM ABT-199 and SRA141 for 72 hours at SRA141 concentrations of 0.04 μM to 3.30 μM.

Test [3] has as its system MOLM-13 cells. Put plainly: Sequential treatment: SRA141 pre-treatment then partner agent, ATPlite. The note with it: 200 nM SRA141 pre-treatment 48 hrs compared to DMSO pre-treatment. Format: cell-based, human.
Procedure: Flasks of MOLM-13 cells were pre-treated with SRA141 (1 μM and 200 nM) and DMSO control for 48 hrs; cells were washed and seeded into 384-well plates; plates left to incubate for 6 hrs, followed by treatment with trametinib or bexarotene six hours after plating as single agents. After 72 hrs, ATP levels were measured using ATPlite.
The test system of test [4] is Colo-205. Put plainly: Combination of SRA141 with targeted agents, CTG and CTBlue, 72 hours, Bliss CI. To be noted: Colo-205, 72 hours.
Test [5] relates to EOL-1. Put plainly: AML 3D culture, 5 days. The format is cell-based. The note with it: EOL-1 cell line. As for the experimental part:
(§7) The activity of SRA141 was investigated in in vitro and ex vivo three-dimensional (3D) cultures prepared from three AML cell lines (EOL-1, Molm-16 and MV-4-11) and three AML PDX models (AM5512, AM7440 and AM7577), respectively. Tumor cultures were treated with SRA141 (0.08 to 33 μM) for 5 days.

In test [6] the test system is MV-4-11. Put plainly: AML 3D culture, 5 days. Format: cell-based. The note with it: MV-4-11 cell line. As for the experimental part: as §7
Test [7] deals with Molm-16. The experiment in a line: AML 3D culture, 5 days. The format is cell-based. The note with it: Molm-16 cell line. As for the experimental part:
as §7

For test [8], the system named is AM5512. The experiment in a line: AML PDX ex vivo 3D culture, 5 days. Format: cell-based. The procedure: as §7
For test [9], the system named is AM7440. Put plainly: AML PDX ex vivo 3D culture, 5 days. The format is cell-based. The procedure: as §7
Test [10] has as its system AM7577. The experiment in a line: AML PDX ex vivo 3D culture, 5 days. Format: cell-based. The procedure:
as §7

Test [11] has as its system COLO-205 cells. The experiment in a line: Co-treatment combination screen, synergy score, ATPlite. Format: cell-based, human. To be noted: simultaneous combination treatment, 72 hours. As for the experimental part:
as §1, §2, §3, §4, §5, §6

Test [12] relates to SW620. Put plainly: Combination of SRA141 with targeted agents, CTG and CTBlue, 72 hours, Bliss CI. The note with it: SW620, 72 hours.
Test [13] concerns MV411. Described as above. The note with it: MV411, 72 hours.
Test [14] deals with AML-blast progenitors. Put plainly: 3D growth in methylcellulose matrix, 14 days. The format is cell-based. The procedure: (§8) The anti-proliferative activity of SRA141 (0.3-5 μM) was also evaluated in additional 3D growth studies conducted in a methylcellulose growth matrix using normal human myeloid (n=3) and AML-blast progenitors incubated for 14 days.
Test [15] relates to normal human myeloid progenitors (normal bone marrow). The experiment in a line: 3D growth in methylcellulose matrix, 14 days. Format: cell-based. As for the experimental part: as §8
The subject of test [16] is Colo-205 colorectal adenocarcinoma cells. Put plainly: Sequential treatment: SRA141 pre-treatment then partner agent, ATPlite. The format is cell-based, human.

On to `CC1(C)CCC(CN2CCN(c3ccc(C(=O)NS(=O)(=O)c4ccc(NCC5CCOCC5)c([N+](=O)[O-])c4)c(Oc4cnc5[nH]ccc5c4)c3)CC2)=C(c2ccc(Cl)cc2)C1` [ABT-199], for which, in test [1], the “synergy with SRA141” value is listed as “strong synergies”. Moreover, in [2] (0.1 μM ABT-199 with SRA141 at 0.12, 0.37, 1.10 and 3.30 μM, 72 hours), the “Combination Index” value is reported as “less than 1”. Besides, the “combination effect with SRA141” value in test [2] was “act synergistically”.

Turning to `Cn1ncnc1[C@H]1c2n[nH]c(=O)c3cc(F)cc(c23)N[C@@H]1c1ccc(F)cc1` [BMN673], in [1], the “synergy with SRA141” value is “strong synergies”.

For `C=C(c1ccc(C(=O)O)cc1)c1cc2c(cc1C)C(C)(C)CCC2(C)C` [Bexarotene], in test [3], the “EC50 fold change of partner agent” value was found to be 2.63. In addition, in test [1], the “synergy with SRA141” value is listed as “strong synergies”. For the same molecule, the figures for the “combination effect with SRA141” value in [2] and in [4] were “slight additive effects” and “antagonistic effect”, respectively.

As for `N.N.[Cl][Pt][Cl]` [Cisplatin], the IC50 is 640 nM in [5]; 620 nM in test [6]; 380 nM in [7]; 11900 nM in [8]; 1340 nM in [9]; 4180 nM in [10].

On to `COc1c(OCCCN2CCOCC2)ccc2c1N=C(NC(=O)c1cnc(N)nc1)N1CCN=C21` [Copanlisib], for which the “synergy with SRA141” value in test [11] is reported as “Strong synergies”. The “combination effect with SRA141” value is given as “slight additive effects” in [2], “slight additive effect” in test [4], “slight additive effects” in test [12] and “slight additive effects” in test [13].

`Nc1ccn([C@@H]2O[C@H](CO)[C@@H](O)[C@@H]2O)c(=O)n1` [Cytarabine, cytosine arabinoside, reference compound]: the IC50 in test [5] (Homo sapiens, EOL1) is 2 nM; in test [6] (Homo sapiens, MV4-11), 50 nM; in test [7] (MOLM16) it was 70 nM; in [8] it was 8890 nM; in [9], 270 nM; in [14] (AML810 censored, read-out: mean IC50, AML samples) it was approximately 4 nM. The IC50 in [14] (AML-blast progenitor 180, read-out: IC50) was determined as 3.6 nM; in test [14] (AML-blast progenitor 190, read-out: IC50), 6.1 nM; in test [14] (AML-blast progenitor 200, read-out: IC50), 2.8 nM; in test [14] (AML-blast progenitor 250, read-out: IC50) it was 2.2 nM; in test [14] (AML-blast progenitor 260, read-out: IC50) it was 3 nM; in [14] (AML-blast progenitor 717, read-out: IC50), 3.8 nM. Further, the IC50 is 9.6 nM in [14] (AML-blast progenitor 810 (sample censored), read-out: IC50); 8.1 nM in test [14] (AML-blast progenitor 915, read-out: IC50); 5.7 nM in test [14] (AML-blast progenitor 917, read-out: IC50); 5 ± 2.6 nM in test [14] (with AML 810, read-out: Mean AML-blast progenitor IC50 (with AML 810)); 4.4 ± 2 nM in test [14] (without AML 810, read-out: Mean AML-blast progenitor IC50 (without AML 810)); 4.8 nM in test [15] (Normal bone marrow 111, read-out: IC50). For the same molecule, the IC50 is 3.7 nM in test [15] (Normal bone marrow 525 (first line), read-out: IC50); 3.8 nM in test [15] (Normal bone marrow 525 (second line), read-out: IC50); 4.1 ± 0.6 nM in [15] (mean of 3 samples, read-out: Mean normal bone marrow IC50); approximately 4 nM in test [15] (read-out: mean IC50, normal bone marrow preparations). Further, the “primary AML samples responding with a Therapeutic Index [(Primary AML IC50)÷(BMNC control IC50)]” value in test [14] (9 primary AML samples) is listed as 2 out of 9.

For `CC(=O)Nc1cccc(-n2c(=O)n(C3CC3)c(=O)c3c(Nc4ccc(I)cc4F)n(C)c(=O)c(C)c32)c1` [Trametinib], the “EC50 fold change of partner agent” value in [3] was 2.63.

On to `CC1=C(/C=C/C(C)=C/C=C/C(C)=C/C(=O)O)C(C)(C)CCC1` [Tretinoin], for which the “combination effect with SRA141” value in test [2] and in [13] was “slight additive effects” in each case.

Consider `C[C@@]1(CO)[C@H](O)CC[C@@]2(C)[C@H]1CC[C@H]1C[C@@H]3C[C@@]12CC[C@]3(O)CO` [aphidicolin], for which the “EC50 fold change of partner agent” value in test [16] (1 μM SRA141 pre-treatment 48 hrs compared to DMSO pre-treatment) was found to be 4.60.

In the case of `CO[C@H]1C[C@@H]2CC[C@@H](C)[C@@](O)(O2)C(=O)C(=O)N2CCCC[C@H]2C(=O)O[C@H]([C@H](C)C[C@@H]2CC[C@@H](OCCO)[C@H](OC)C2)CC(=O)[C@H](C)/C=C(\C)[C@@H](O)[C@@H](OC)C(=O)[C@H](C)C[C@H](C)/C=C/C=C/C=C/1C` [everolimus], the figures for the “EC50 fold change of partner agent” value in test [16] (200 nM SRA141 pre-treatment 48 hrs compared to DMSO pre-treatment) and in test [3] were 3.3 and 3.25, respectively.

The record behind these values is patent publication US12533353B2, “Methods of treatment of cancer comprising CDC7 inhibitors” (CARNA BIOSCIENCES, INC., priority 2018, dated 2026).
